Laboratory results: ChEMBL document CHEMBL1201862, “PubChem BioAssay data set” (2004)
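Grown in 96-well plates, cells were treated for 48 hours with each compound at five concentrations. Insufficient inhibition: endpoint recorded as highest concentration tested. The concentration for 50% growth inhibition is given as GI50.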 Calls of active or inactive are those of the source. Rule as the data show it: active = GI50 up to about 1.1 µM and inactive = higher.

Columns and labels:
Assay in all cases: NCI-60 cell line screen, 48 h
[1] = system: MOLT-4
[2] = system: LOX IMVI
[3] = system: NCI-H23
[4] = system: ACHN
[5] = system: SK-MEL-28
[6] = system: MDA-MB-231
[7] = system: OVCAR-8
[8] = system: OVCAR-4
[9] = system: NCI/ADR-RES
[10] = system: HOP-92
[11] = system: A549
[12] = system: HL-60
[13] = system: K562
[14] = system: SR
[15] = system: MDA-N
[16] = system: PC-3
[17] = system: HT-29
[18] = system: OVCAR-5
[19] = system: SNB-19
[20] = system: SK-OV-3

| Structure (SMILES) | GI50 [1] | GI50 [2] | GI50 [3] | GI50 [4] | GI50 [5] | GI50 [6] | GI50 [7] | GI50 [8] | GI50 [9] | GI50 [10] | GI50 [11] | GI50 [12] | GI50 [13] | GI50 [14] | GI50 [15] | GI50 [16] | GI50 [17] | GI50 [18] | GI50 [19] | GI50 [20] |
| --- | --- | --- | --- | --- | --- | --- | --- | --- | --- | --- | --- | --- | --- | --- | --- | --- | --- | --- | --- | --- |
| Br/C(=N\N=c1/nn[nH][nH]1)c1ccncc1 | > 100 µM (inactive) | > 100 µM (inactive) | > 100 µM (inactive) | > 100 µM (inactive) | > 100 µM (inactive) | > 100 µM (inactive) | > 100 µM (inactive) | > 100 µM (inactive) | > 100 µM (inactive) | > 100 µM (inactive) | > 100 µM (inactive) | > 100 µM (inactive) | > 100 µM (inactive) | > 100 µM (inactive) | > 100 µM (inactive) | > 100 µM (inactive) | > 100 µM (inactive) | > 100 µM (inactive) | > 100 µM (inactive) | > 100 µM (inactive) |
| C/C(=N\NC(N)=S)c1ccccn1.OB(O)c1ccccc1 | 2.07 µM (inactive) | 2.58 µM (inactive) | 11.3 µM (inactive) | 2.04 µM (inactive) | 9.23 µM (inactive) | 7.16 µM (inactive) | 3.63 µM (inactive) | 4.25 µM (inactive) | 3.7 µM (inactive) | 10.4 µM (inactive) | 5.51 µM (inactive) | 1.1 µM (active) | 3.61 µM (inactive) | 3.95 µM (inactive) | 7.53 µM (inactive) | 4.15 µM (inactive) | 6.47 µM (inactive) | 6.05 µM (inactive) | 10.5 µM (inactive) | 5.57 µM (inactive) |
| CCCCCc1c(CCCC)c(=O)[nH]c2cc(CNCC(OC)OC)ccc12 | 5.33 µM (inactive) | 6.01 µM (inactive) | 17.4 µM (inactive) | 14.4 µM (inactive) | 5.71 µM (inactive) | 15.2 µM (inactive) | 16.3 µM (inactive) | 14.7 µM (inactive) | 12.4 µM (inactive) | 7.41 µM (inactive) | 12.6 µM (inactive) | 6 µM (inactive) | 1.9 µM (inactive) | 6.9 µM (inactive) | 11.7 µM (inactive) | 12.2 µM (inactive) | 3.91 µM (inactive) | 14.2 µM (inactive) | 12.8 µM (inactive) | 18.1 µM (inactive) |
| Cc1cccc(-c2cc(O)c3cccnc3n2)c1 | 0.902 µM (active) | 0.512 µM (active) | 2.79 µM (inactive) | 18.7 µM (inactive) | 0.406 µM (active) | 2.09 µM (inactive) | 1.35 µM (inactive) | 24 µM (inactive) | 0.618 µM (active) | 88.3 µM (inactive) | 1.34 µM (inactive) | 0.128 µM (active) | 0.0993 µM (active) | 0.0946 µM (active) | 0.0431 µM (active) | 1.12 µM (inactive) | 0.264 µM (active) | 2.96 µM (inactive) | 1.69 µM (inactive) | 0.569 µM (active) |
| Clc1ccc2c(c1)N(CCCN1CCCC13CCCCC3)c1ccccc1S2 | 3.76 µM (inactive) | 12.4 µM (inactive) | 16.1 µM (inactive) | 20.3 µM (inactive) | 14.9 µM (inactive) | 8.85 µM (inactive) | 16.5 µM (inactive) | 15.4 µM (inactive) | 14.7 µM (inactive) | 10.4 µM (inactive) | 17.3 µM (inactive) | 0.152 µM (active) | 3.95 µM (inactive) | 4.39 µM (inactive) | 13.1 µM (inactive) | 8.04 µM (inactive) | 4.33 µM (inactive) | 17.3 µM (inactive) | 13.7 µM (inactive) | 20.8 µM (inactive) |
| O=C1NN(c2ccccc2)C(=O)C2C3c4ccccc4C(c4ccccc43)C12 (stereo not given) | 6.22 µM (inactive) | > 100 µM (inactive) | > 100 µM (inactive) | > 100 µM (inactive) | > 100 µM (inactive) | 41 µM (inactive) | > 100 µM (inactive) | 60 µM (inactive) | > 100 µM (inactive) | > 100 µM (inactive) | > 100 µM (inactive) | > 10 µM (inactive) | 43.2 µM (inactive) | > 100 µM (inactive) | > 100 µM (inactive) | 24.3 µM (inactive) | 32.7 µM (inactive) | > 10 µM (inactive) | > 100 µM (inactive) | > 100 µM (inactive) |
| N#CC1=C(N)OC(c2ccc([N+](=O)[O-])cc2)C1(C#N)C#N (stereo not given) | 33.7 µM (inactive) | 8.49 µM (inactive) | 15.3 µM (inactive) | 10.2 µM (inactive) | 9.4 µM (inactive) | 16.4 µM (inactive) | 17.5 µM (inactive) | 17.8 µM (inactive) | 19.6 µM (inactive) | 7.94 µM (inactive) | 24.4 µM (inactive) | 3.46 µM (inactive) | 37.8 µM (inactive) | 3.97 µM (inactive) | 9.18 µM (inactive) | 17.1 µM (inactive) | 9.14 µM (inactive) | 18.7 µM (inactive) | 22.4 µM (inactive) | 26.2 µM (inactive) |
| CCOC(=O)C1C/C(C)=C(/C)SCCCS1 (stereo not given) | 38.2 µM (inactive) | 68.5 µM (inactive) | 80 µM (inactive) | > 100 µM (inactive) | > 100 µM (inactive) | > 100 µM (inactive) | > 100 µM (inactive) | > 100 µM (inactive) | > 100 µM (inactive) | > 100 µM (inactive) | > 100 µM (inactive) | 28.6 µM (inactive) | 46.1 µM (inactive) | 65.5 µM (inactive) | > 100 µM (inactive) | > 100 µM (inactive) | > 100 µM (inactive) | > 100 µM (inactive) | > 100 µM (inactive) | > 100 µM (inactive) |
| NCCNCC(O)CO (stereo not given) | > 100 µM (inactive) | > 100 µM (inactive) | > 100 µM (inactive) | > 100 µM (inactive) | > 100 µM (inactive) | > 100 µM (inactive) | > 100 µM (inactive) | > 100 µM (inactive) | > 100 µM (inactive) | > 100 µM (inactive) | > 100 µM (inactive) | > 100 µM (inactive) | > 100 µM (inactive) | > 100 µM (inactive) | > 100 µM (inactive) | > 100 µM (inactive) | > 100 µM (inactive) | > 100 µM (inactive) | > 100 µM (inactive) | > 100 µM (inactive) |
